Where “and” joins values, the source holds several entries; their conditions need not be identical. Identical values can stand only once.
Tested on: 171881-019-R-J1-PDC complex spheroid viability
Assay: Anticancer human tumor 171881-019-R-J1-PDC patient-derived invasive breast carcinoma cell line growth inhibition
Conditions: for viability, T/C: stronger effect = lower value
Summary of the method: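 Complex spheroids of tumor cells with HUVEC and human MSCs, exposed to iadademstat combined with other agents. Each agent tested in half-log steps from near clinical Cmax (else 10 microM top), DMSO ≤0.25%.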

[1] = curve of first compound, second compound 0.1 µM
[2] = curve of first compound, second compound 0.316 µM
[3] = curve of first compound, second compound 1 µM
[4] = curve of first compound, second compound 3.16 µM
[5] = curve of first compound, second compound 10 µM
[6] = second compound 0.1 µM, first compound 0.000316 µM
[7] = second compound 0.1 µM, first compound 0.001 µM
[8] = second compound 0.1 µM, first compound 0.00316 µM
[9] = second compound 0.1 µM, first compound 0.01 µM
[10] = second compound 0.1 µM, first compound 0.0316 µM
[11] = second compound 0.1 µM, first compound 0.1 µM
[12] = second compound 0.316 µM, first compound 0.000316 µM
[13] = second compound 0.316 µM, first compound 0.001 µM
[14] = second compound 0.316 µM, first compound 0.00316 µM
[15] = second compound 0.316 µM, first compound 0.01 µM
[16] = second compound 0.316 µM, first compound 0.0316 µM
[17] = second compound 0.316 µM, first compound 0.1 µM
[18] = second compound 1 µM, first compound 0.000316 µM
[19] = second compound 1 µM, first compound 0.001 µM
[20] = second compound 1 µM, first compound 0.00316 µM
[21] = second compound 1 µM, first compound 0.01 µM
[22] = second compound 1 µM, first compound 0.0316 µM
[23] = second compound 1 µM, first compound 0.1 µM
[24] = second compound 3.16 µM, first compound 0.000316 µM
[25] = second compound 3.16 µM, first compound 0.001 µM
[26] = second compound 3.16 µM, first compound 0.00316 µM
[27] = second compound 3.16 µM, first compound 0.01 µM
[28] = second compound 3.16 µM, first compound 0.0316 µM
[29] = second compound 3.16 µM, first compound 0.1 µM
[30] = second compound 10 µM, first compound 0.000316 µM
[31] = second compound 10 µM, first compound 0.001 µM
[32] = second compound 10 µM, first compound 0.00316 µM
[33] = second compound 10 µM, first compound 0.01 µM
[34] = second compound 10 µM, first compound 0.0316 µM
[35] = second compound 10 µM, first compound 0.1 µM

`CCc1c2c(nc3ccc(O)cc13)-c1cc3c(c(=O)n1C2)COC(=O)[C@]3(O)CC` + NC1CC1c1ccc(-c2cccc(O)c2)cc1 was tested, and the IC50 [1] was under 0.949 nM, the IC50 [2] was under 0.949 nM and the IC50 [3] was under 0.949 nM. It also gave an IC50 [4] of under 0.949 nM, an IC50 [5] of under 0.949 nM and a viability, T/C (second compound 0.1 µM, first compound 0.000949 µM) of 44.7%. For the same compound, the viability, T/C (second compound 0.1 µM, first compound 0.003 µM) was 30.8%, the viability, T/C (second compound 0.1 µM, first compound 0.00949 µM) was 25.1% and the viability, T/C (second compound 0.1 µM, first compound 0.03 µM) was 15.4%. It also gave a viability, T/C (second compound 0.1 µM, first compound 0.0949 µM) of 21.5%, a viability, T/C (second compound 0.1 µM, first compound 0.3 µM) of 19.3% and a viability, T/C (second compound 0.316 µM, first compound 0.000949 µM) of 49%. It also gave a viability, T/C (second compound 0.316 µM, first compound 0.003 µM) of 37.4%, a viability, T/C (second compound 0.316 µM, first compound 0.00949 µM) of 17.8% and a viability, T/C (second compound 0.316 µM, first compound 0.03 µM) of 20%. It also gave a viability, T/C (second compound 0.316 µM, first compound 0.0949 µM) of 16.7%, a viability, T/C (second compound 0.316 µM, first compound 0.3 µM) of 22.7% and a viability, T/C (second compound 1 µM, first compound 0.000949 µM) of 36.3%. The viability, T/C (second compound 1 µM, first compound 0.003 µM) was 22.2%, the viability, T/C (second compound 1 µM, first compound 0.00949 µM) was 8.77% and the viability, T/C (second compound 1 µM, first compound 0.03 µM) was 16.8%. For the same compound, the viability, T/C (second compound 1 µM, first compound 0.0949 µM) was 13.8%, the viability, T/C (second compound 1 µM, first compound 0.3 µM) was 18.6% and the viability, T/C (second compound 3.16 µM, first compound 0.000949 µM) was 22.5%. It also gave a viability, T/C (second compound 3.16 µM, first compound 0.003 µM) of 22.6%, a viability, T/C (second compound 3.16 µM, first compound 0.00949 µM) of 5.26% and a viability, T/C (second compound 3.16 µM, first compound 0.03 µM) of 13.8%. For the same compound, the viability, T/C (second compound 3.16 µM, first compound 0.0949 µM) was 14.6%, the viability, T/C (second compound 3.16 µM, first compound 0.3 µM) was 5.74% and the viability, T/C (second compound 10 µM, first compound 0.000949 µM) was 26.9%. For the same compound, the viability, T/C (second compound 10 µM, first compound 0.003 µM) was 14.8%, the viability, T/C (second compound 10 µM, first compound 0.00949 µM) was 2.56% and the viability, T/C (second compound 10 µM, first compound 0.03 µM) was 8.5%. It also gave a viability, T/C (second compound 10 µM, first compound 0.0949 µM) of 7.12% and a viability, T/C (second compound 10 µM, first compound 0.3 µM) of 4.11%.
`Cn1ncnc1C1c2n[nH]c(=O)c3cc(F)cc(c23)NC1c1ccc(F)cc1` (configuration not stated) + NC1CCC(NC2CC2c2ccccc2)CC1 showed an IC50 [1] of over 100 nM, an IC50 [2] of over 100 nM and an IC50 [3] of over 100 nM. It also gave an IC50 [4] of over 100 nM, an IC50 [5] of over 100 nM and a viability, T/C [6] of 92.3%. The viability, T/C [7] was 79.1%, the viability, T/C [8] was 88.4% and the viability, T/C [9] was 79.3%. For the same compound, the viability, T/C [10] was 81.4%, the viability, T/C [11] was 85.7% and the viability, T/C [12] was 82.1%. It also gave a viability, T/C [13] of 76.3%, a viability, T/C [14] of 69.3% and a viability, T/C [15] of 71.5%. It also gave a viability, T/C [16] of 81.8%, a viability, T/C [17] of 76.7% and a viability, T/C [18] of 78.9%. The viability, T/C [19] was 85.5%, the viability, T/C [20] was 70.7% and the viability, T/C [21] was 71.7%. The viability, T/C [22] was 73.5%, the viability, T/C [23] was 79.9% and the viability, T/C [24] was 90%. It also gave a viability, T/C [25] of 78.8%, a viability, T/C [26] of 59.2% and a viability, T/C [27] of 86.7%. The viability, T/C [28] was 78.8%, the viability, T/C [29] was 85.7% and the viability, T/C [30] was 73%. For the same compound, the viability, T/C [31] was 84.5%, the viability, T/C [32] was 71% and the viability, T/C [33] was 76.3%. It also gave a viability, T/C [34] of 72.6% and a viability, T/C [35] of 88.6%.
Work on `CC[C@@]1(O)C(=O)OCc2c1cc1n(c2=O)Cc2cc3c(CN(C)C)c(O)ccc3nc2-1` + NC1CCC(NC2CC2c2ccccc2)CC1 yielded an IC50 [1] of over 100 nM, an IC50 [2] of over 100 nM and an IC50 [3] of over 100 nM. For the same compound, the IC50 [4] was over 100 nM, the IC50 [5] was over 100 nM and the viability, T/C [6] was 83.9%. It also gave a viability, T/C [7] of 91.8%, a viability, T/C [8] of 122% and a viability, T/C [9] of 74.7%. It also gave a viability, T/C [10] of 69.5%, a viability, T/C [11] of 50.6% and a viability, T/C [12] of 80.2%. For the same compound, the viability, T/C [13] was 86.1%, the viability, T/C [14] was 125% and the viability, T/C [15] was 71.1%. It also gave a viability, T/C [16] of 67.3%, a viability, T/C [17] of 56.5% and a viability, T/C [18] of 87.5%. It also gave a viability, T/C [19] of 89.4%, a viability, T/C [20] of 128% and a viability, T/C [21] of 77.6%. The viability, T/C [22] was 72.4%, the viability, T/C [23] was 59% and the viability, T/C [24] was 95.2%. It also gave a viability, T/C [25] of 94.5%, a viability, T/C [26] of 138% and a viability, T/C [27] of 83.1%. It also gave a viability, T/C [28] of 75.8%, a viability, T/C [29] of 62.3% and a viability, T/C [30] of 88%. It also gave a viability, T/C [31] of 93.7%, a viability, T/C [32] of 133% and a viability, T/C [33] of 92.7%. The viability, T/C [34] was 90.7% and the viability, T/C [35] was 76.4%.
In the case of `CC(C)CC(NC(=O)C(Cc1ccccc1)NC(=O)c1cnccn1)B(O)O` (configuration not stated) + NC1CCC(NC2CC2c2ccccc2)CC1, the IC50 [1] is reported as under 0.316 nM, the IC50 [2] is reported as under 0.316 nM and the IC50 [3] is reported as under 0.316 nM. The IC50 [4] was under 0.316 nM, the IC50 [5] was under 0.316 nM and the viability, T/C [6] was 9.27%. The viability, T/C [7] was 1.3%, the viability, T/C [8] was 3.65% and the viability, T/C [9] was 0.1%. It also gave a viability, T/C [10] of 0.06%, a viability, T/C [11] of 0.11% and a viability, T/C [12] of 8.56%. It also gave a viability, T/C [13] of 1.25%, a viability, T/C [14] of 0.38% and a viability, T/C [15] of 0.1%. The viability, T/C [16] was 0.09%, the viability, T/C [17] was 0.14% and the viability, T/C [18] was 10.1%. It also gave a viability, T/C [19] of 1.4%, a viability, T/C [20] of 0.35% and a viability, T/C [21] of 0.2%. It also gave a viability, T/C [22] of 0.03%, a viability, T/C [23] of 2.22% and a viability, T/C [24] of 9.75%. The viability, T/C [25] was 3.48%, the viability, T/C [26] was 0.44% and the viability, T/C [27] was 0.14%. It also gave a viability, T/C [28] of 0.04%, a viability, T/C [29] of 1.61% and a viability, T/C [30] of 5.79%. The viability, T/C [31] was 0.65%, the viability, T/C [32] was 0.32% and the viability, T/C [33] was 0.23%. The viability, T/C [34] was 0.09% and the viability, T/C [35] was 0.37%.
With `CC(C)CC(NC(=O)CNC(=O)c1cc(Cl)ccc1Cl)B1OC(=O)CC(CC(=O)O)(C(=O)O)O1` (configuration not stated) the viability, T/C (compound 0.000316 µM) was 91.2% and 75.3%, the viability, T/C (compound 0.001 µM) was 105% and 52.1% and the viability, T/C (compound 0.00316 µM) was 48% and 33.7%. The viability, T/C (compound 0.01 µM) was 12.6% and 17.4%, the viability, T/C (compound 0.0316 µM) was 3.28% and 13.3% and the viability, T/C (compound 0.1 µM) was 0.97% and 15.7%. For the same compound, the IC50 (curve of compound) was 3.02 nM and 1.19 nM.

Reference: PubChem BioAssay AID1918932 (Molecular Pharmacology Branch, DTP, NCI, 2023)
